In patent US9784747B2, “Method and kit for analyzing protein-protein interaction using nanocluster formation” (KOREA ADVANCED INSTITUTE OF SCIENCE AND TECHNOLOGY, priority 2011, dated 2017):

Test system: interaction between CaMKIIα and calmodulin
Test: Real-time observation of calcium-dependent nanocluster formation (CaMKIIα-CaM interaction) in cotransfected HeLa cells
Format: cell-based
Details: ionomycin 1 mM; 80 seconds after treatment; HeLa cells cotransfected with mCherry-CaMKII[296-315]-AD and CaM-ECFP-FT; fluorescence distributed again as time passes
Description: To investigate whether the system of the present disclosure can be used for real-time observation of an intermolecular interaction regulated by calcium through a calcium dependent nanocluster formation, the present inventors cotransfected HeLa cells with the mCherry-CaMKII[296-315]-AD construct constructed in example 1-18 and the CaM-ECFP-FT construct constructed in example 1-19 through the method described above. Thereafter, the cells were treated with 1 mM of ionomycin as ionophore which facilitates calcium ion penetration.
Then, fluorescence was distributed again as time passes.

## C[C@H](CCC(=O)O)C[C@H](C)C[C@H](C)C(=O)/C=C(\O)[C@H](C)C[C@H](C)C/C=C/[C@@H](C)[C@@H](O)[C@@H](C)[C@@H](O)C[C@@H]1CC[C@@](C)([C@H]2CC[C@@](C)([C@@H](C)O)O2)O1 [ionomycin]
  distribution and intensity of fluorescence (nanocluster formation): a strong fluorescence dot appeared in cytoplasm due to a nanocluster formation
